According to patent US6440903B1, “Substituted 2,4-diamino-1,3,5-triazines as herbicides” (Bayer Aktiengesellschaft, priority 1996, dated 2002):

Assays:
Format in all cases: in vivo
weeds = assay: Post-emergence test (summary in text); conditions: result in words
Experimental: Solvent: 5 parts by weight of acetone
Emulsifier: 1 part by weight of alkylaryl polyglycol ether
To produce a suitable preparation of active compound, 1 part by weight of active compound is mixed with the stated amount of solvent, the stated amount of emulsifier is added and the concentrate is diluted with water to the desired concentration.
Test plants which have a height of 5-15 cm are sprayed with the preparation of active compound such that the particular amounts of active compounds desired are applied per unit area. The concentration of the spray liquor is chosen so that the particular amounts of active compound desired are applied in 1000 l of water/ha.
After three weeks, the degree of damage to the plants is scored visually in % damage in comparison to the untreated control.
0%=no effect (like untreated control)

Amaranthus = assay: Post-emergence test; conditions: greenhouse, scored after three weeks; for pest or weed control at 1000 g/ha / pest or weed control at 500 g/ha / pest or weed control at 250 g/ha: Amaranthus, 504 h, read-out: % damage, Amaranthus; for pest or weed control at 1000 g/ha: 1000 g of ai./ha
Experimental: (§1) Post-emergence Test Solvent: 5 parts by weight of acetone Emulsifier: 1 part by weight of alkylaryl polyglycol ether To produce a suitable preparation of active compound, 1 part by weight of active compound is mixed with the stated amount of solvent, the stated amount of emulsifier is added and the concentrate is diluted with water to the desired concentration. Test plants which have a height of 5-15 cm are sprayed with the preparation of active compound such that the particular amounts of active compounds desired are applied per unit area. The concentration of the spray liquor is chosen so that the particular amounts of active compound desired are applied in 1000 l of water/ha. After three weeks, the degree of damage to the plants is scored visually in % damage in comparison to the untreated control. The Figures Denote: 0%=no effect (like untreated control) 100%=total destruction

Chenopodium = assay: Post-emergence test; conditions: greenhouse, scored after three weeks; for pest or weed control at 1000 g/ha / pest or weed control at 500 g/ha / pest or weed control at 250 g/ha: Chenopodium, 504 h, read-out: % damage, Chenopodium; for pest or weed control at 1000 g/ha: 1000 g of ai./ha
Experimental: as §1

Polygonum = assay: Post-emergence test; conditions: greenhouse, scored after three weeks; for pest or weed control at 1000 g/ha / pest or weed control at 500 g/ha / pest or weed control at 250 g/ha: Polygonum, 504 h, read-out: % damage, Polygonum; for pest or weed control at 1000 g/ha: 1000 g of ai./ha
Experimental: as §1

Setaria = assay: Post-emergence test; conditions: greenhouse, scored after three weeks
Experimental: as §1

Viola = assay: Post-emergence test; conditions: greenhouse, scored after three weeks; for pest or weed control at 1000 g/ha / pest or weed control at 500 g/ha / pest or weed control at 250 g/ha: 504 h, read-out: % damage, Viola; for pest or weed control at 1000 g/ha: 1000 g of ai./ha
Experimental: as §1

Wheat = assay: Post-emergence test; conditions: greenhouse, scored after three weeks; for plant injury at 1000 g/ha / plant injury at 500 g/ha / plant injury at 250 g/ha: Triticum aestivum, 504 h, read-out: % damage, Wheat; for plant injury at 1000 g/ha: 1000 g of ai./ha; for plant injury at 500 g/ha: 500 g of ai./ha; for plant injury at 250 g/ha / % damage, Wheat: 250 g of ai./ha
Experimental: as §1

[1] = Setaria, 504 h, 500 g of ai./ha, read-out: % damage, Setaria
[2] = Setaria, 504 h, 250 g of ai./ha, read-out: % damage, Setaria

COc1ccc(C(C)Nc2nc(N)nc(C(C)F)n2)cc1 (centres unmarked) [Example 190]
activity against weeds (weeds): strong activity

CSc1ccc(C(C)Nc2nc(N)nc(C(Cl)Cl)n2)cc1 (centres unmarked) [drawing 113]
pest or weed control at 1000 g/ha (Amaranthus): 100% | pest or weed control at 1000 g/ha (Chenopodium): 100% | pest or weed control at 1000 g/ha (Polygonum): 80% | pest or weed control at 1000 g/ha (Setaria; Setaria, 504 h, 1000 g of ai./ha, read-out: % damage, Setaria): 90% | pest or weed control at 1000 g/ha (Viola): 100% | plant injury at 1000 g/ha (Wheat): 0%

CSc1ccc(C(C)Nc2nc(N)nc(C(C)(Cl)Cl)n2)cc1 (centres unmarked) [drawing 114]
pest or weed control at 500 g/ha (Amaranthus; 500 g of ai./ha): 100% | pest or weed control at 500 g/ha (Chenopodium; 500 g of ai./ha): 100% | pest or weed control at 500 g/ha (Polygonum; 500 g of ai./ha): 100% | pest or weed control at 500 g/ha (Setaria; [1]): 80% | pest or weed control at 500 g/ha (Viola; 500 g of ai./ha): 100% | plant injury at 500 g/ha (Wheat): 0%

CCc1nc(N)nc(NC(C)c2ccc(Cl)cc2)n1 (centres unmarked) [drawing 116]
pest or weed control at 250 g/ha (Amaranthus; 250 g of ai./ha): 100% | pest or weed control at 250 g/ha (Chenopodium; 250 g of ai./ha): 100% | pest or weed control at 250 g/ha (Polygonum; 250 g of ai./ha): 100% | pest or weed control at 250 g/ha (Setaria; [2]): 100% | pest or weed control at 250 g/ha (Viola; 250 g of ai./ha): 100% | plant injury at 250 g/ha (Wheat): 10%

CC(Nc1nc(N)nc(C(F)C(F)(F)F)n1)c1ccc(Cl)cc1 (centres unmarked) [drawing 117]
pest or weed control at 250 g/ha (Amaranthus; 250 g of ai./ha): 100% | pest or weed control at 250 g/ha (Chenopodium; 250 g of ai./ha): 100% | pest or weed control at 250 g/ha (Polygonum; 250 g of ai./ha): 100% | pest or weed control at 250 g/ha (Setaria; [2]): 95% | pest or weed control at 250 g/ha (Viola; 250 g of ai./ha): 100% | plant injury at 250 g/ha (Wheat): 10%

COCc1nc(N)nc(NC(C)c2ccc(Cl)cc2)n1 (centres unmarked) [drawing 118]
pest or weed control at 250 g/ha (Amaranthus; 250 g of ai./ha): 100% | pest or weed control at 250 g/ha (Chenopodium; 250 g of ai./ha): 100% | pest or weed control at 250 g/ha (Polygonum; 250 g of ai./ha): 100% | pest or weed control at 250 g/ha (Setaria; [2]): 80% | pest or weed control at 250 g/ha (Viola; 250 g of ai./ha): 100% | plant injury at 250 g/ha (Wheat): 10%

CC(Nc1nc(N)nc(C(Cl)Cl)n1)c1ccc(Cl)cc1 (centres unmarked) [drawing 119]
pest or weed control at 250 g/ha (Amaranthus; 250 g of ai./ha): 100% | pest or weed control at 250 g/ha (Chenopodium; 250 g of ai./ha): 100% | pest or weed control at 250 g/ha (Polygonum; 250 g of ai./ha): 100% | pest or weed control at 250 g/ha (Setaria; [2]): 90% | pest or weed control at 250 g/ha (Viola; 250 g of ai./ha): 100% | plant injury at 250 g/ha (Wheat): 10%

CC(Cl)c1nc(N)nc(NC(C)c2ccc(Cl)cc2)n1 (centres unmarked) [drawing 120]
pest or weed control at 250 g/ha (Amaranthus; 250 g of ai./ha): 100% | pest or weed control at 250 g/ha (Chenopodium; 250 g of ai./ha): 100% | pest or weed control at 250 g/ha (Polygonum; 250 g of ai./ha): 100% | pest or weed control at 250 g/ha (Setaria; [2]): 80% | pest or weed control at 250 g/ha (Viola; 250 g of ai./ha): 100% | % damage, Wheat (Wheat): 0%

CC(Nc1nc(N)nc(C(C)(Cl)Cl)n1)c1ccc(Cl)cc1 (centres unmarked) [drawing 121]
pest or weed control at 250 g/ha (Amaranthus; 250 g of ai./ha): 100% | pest or weed control at 250 g/ha (Chenopodium; 250 g of ai./ha): 100% | pest or weed control at 250 g/ha (Polygonum; 250 g of ai./ha): 100% | pest or weed control at 250 g/ha (Setaria; [2]): 80% | pest or weed control at 250 g/ha (Viola; 250 g of ai./ha): 100% | plant injury at 250 g/ha (Wheat): 10%

CC(=O)Nc1nc(NC(C)c2ccc(Cl)cc2)nc(C(C)Cl)n1 (centres unmarked) [drawing 122]
pest or weed control at 250 g/ha (Amaranthus; 250 g of ai./ha): 100% | pest or weed control at 250 g/ha (Chenopodium; 250 g of ai./ha): 100% | pest or weed control at 250 g/ha (Polygonum; 250 g of ai./ha): 100% | pest or weed control at 250 g/ha (Setaria; [2]): 80% | pest or weed control at 250 g/ha (Viola; 250 g of ai./ha): 95% | plant injury at 250 g/ha (Wheat): 10%

CCc1nc(N)nc(NC(C)c2ccc(Cl)cc2)n1 (centres unmarked) [drawing 123]
pest or weed control at 500 g/ha (Amaranthus; 500 g of ai./ha): 100% | pest or weed control at 500 g/ha (Chenopodium; 500 g of ai./ha): 100% | pest or weed control at 500 g/ha (Polygonum; 500 g of ai./ha): 100% | pest or weed control at 500 g/ha (Setaria; [1]): 95% | pest or weed control at 500 g/ha (Viola; 500 g of ai./ha): 100%

CC(Nc1nc(N)nc(C(F)C(F)(F)F)n1)c1ccc(Cl)cc1 (centres unmarked) [drawing 124]
% damage, Amaranthus (Amaranthus; 250 g of ai./ha): 100% | % damage, Chenopodium (Chenopodium; 250 g of ai./ha): 100% | % damage, Polygonum (Polygonum; 250 g of ai./ha): 95% | % damage, Setaria (Setaria; 250 g of ai./ha): 90% | % damage, Viola (Viola; 250 g of ai./ha): 95% | % damage, Wheat (Wheat): 10%

CC(Cl)c1nc(N)nc(NC(C)c2ccc(Cl)cc2)n1 (centres unmarked) [drawing 125]
% damage, Amaranthus (Amaranthus; 250 g of ai./ha): 100% | % damage, Chenopodium (Chenopodium; 250 g of ai./ha): 95% | % damage, Polygonum (Polygonum; 250 g of ai./ha): 95% | % damage, Setaria (Setaria; 250 g of ai./ha): 80% | % damage, Viola (Viola; 250 g of ai./ha): 95% | % damage, Wheat (Wheat): 10%

CC(Nc1nc(N)nc(C(C)(Cl)Cl)n1)c1ccc(Cl)cc1 (centres unmarked) [drawing 126]
pest or weed control at 500 g/ha (Amaranthus; 500 g of ai./ha): 100% | pest or weed control at 500 g/ha (Chenopodium; 500 g of ai./ha): 100% | pest or weed control at 500 g/ha (Polygonum; 500 g of ai./ha): 100% | pest or weed control at 500 g/ha (Setaria; [1]): 90% | pest or weed control at 500 g/ha (Viola; 500 g of ai./ha): 100% | plant injury at 500 g/ha (Wheat): 10%

CCc1nc(N)nc(NC(C)c2ccc(Cl)cc2)n1 (centres unmarked) [drawing 127]
% damage, Amaranthus (Amaranthus; 500 g of ai./ha): 100% | % damage, Chenopodium (Chenopodium; 500 g of ai./ha): 100% | % damage, Polygonum (Polygonum; 500 g of ai./ha): 100% | % damage, Setaria (Setaria; 500 g of ai./ha): 100% | % damage, Viola (Viola; 500 g of ai./ha): 100%

COCc1nc(N)nc(NC(C)c2ccc(Cl)cc2)n1 (centres unmarked) [drawing 130]
% damage, Amaranthus (Amaranthus; 250 g of ai./ha): 100% | % damage, Chenopodium (Chenopodium; 250 g of ai./ha): 100% | % damage, Polygonum (Polygonum; 250 g of ai./ha): 100% | % damage, Viola (Viola; 250 g of ai./ha): 100% | % damage, Wheat (Wheat): 10%

COc1ccc(C(C)Nc2nc(N)nc(C(C)F)n2)cc1 (centres unmarked) [drawing 136]
pest or weed control at 250 g/ha (Amaranthus; 250 g of ai./ha): 100% | pest or weed control at 250 g/ha (Chenopodium; 250 g of ai./ha): 100% | pest or weed control at 250 g/ha (Polygonum; 250 g of ai./ha): 100% | pest or weed control at 250 g/ha (Viola; 250 g of ai./ha): 95% | plant injury at 250 g/ha (Wheat): 10%

CCC(Nc1nc(N)nc(C(F)(F)F)n1)c1ccc(Cl)cc1 (centres unmarked) [drawing 139]
pest or weed control at 1000 g/ha (Amaranthus): 100% | pest or weed control at 1000 g/ha (Chenopodium): 100% | pest or weed control at 1000 g/ha (Polygonum): 100% | pest or weed control at 1000 g/ha (Viola): 100% | plant injury at 1000 g/ha (Wheat): 10%
